Data on one compound can be found in patent US5622498A, “Method for the treatment of periodontal disease by sustained delivery of a therapeutic agent to the periodontal pocket, composition of matter therefor and apparatus for the administration thereof” (priority 1993, dated 1997).

Series [1] concerns gram-positive and gram-negative organisms. To be noted: cited from earlier work.
The conditions of series [2]: dog, in vivo.
Text: Pharmacokinetic investigation of minocycline-containing periodontal microcapsules was undertaken to produce a dosage form that could be administered to the periodontal pocket and that would yield minocycline concentrations exceeding the MIC's (0.05-1.56 mcg/ml) for organisms associated with periodontal disease for extended periods of time. Therefore, a study to evaluate four different minocycline periodontal formulations relative to determining minocycline levels in crevicular fluid was conducted in a dog model. The study utilized beagle dogs with surgically created "chronic" intrabony periodontal defects. […]
In sequence, the defects were created as follows: First, the lower fourth premolars were extracted, sockets were allowed to heal for one month, and dogs received a full mouth scaling and tooth cleaning. […] Dogs were monitored for an additional four weeks.
For evaluation of crevicular levels of minocycline, dogs were placed under general anesthesia, and the various formulations were administered into the periodontal pockets associated with the created defects. […] The strip was then removed, and the relative amount of fluid was determined by a Periotron 6000 instrument. […]
Samples of gingival fluid are collected as described above, and analyzed. […]
Series [3] concerns organisms associated with periodontal disease. As to conditions: cited from earlier work.

What is called MIC is the lowest concentration found to suppress growth. With `CN(C)c1ccc(O)c2c1C[C@H]1C[C@H]3[C@H](N(C)C)C(O)=C(C(N)=O)C(=O)[C@@]3(O)C(O)=C1C2=O` [minocycline, 7-dimethylamino-6-deoxy-6-demethyltetracycline], in series [1], the antibacterial activity entry is “activity against a wide range of gram-positive and gram-negative organisms”. Moreover, the “period for which minimum inhibitory concentrations (MIC's) can be achieved” value in series [2] was “up to two”. Further, in series [3], the MIC is 0.05 to 1.56 µg/mL.
